From ChEMBL document CHEMBL4152270, “Free radical rearrangement synthesis and microbiological evaluation of novel 2-sulfoether-4-quinolone scaffolds as potential antibacterial agents” (Eur J Med Chem, 2018)
Values after ≈ are worked out from the molar mass of the structure shown. Active and inactive are the calls of the source. No cut-off for these calls is given here.

Columns and labels:
Staphylococcus aureus [1] = assay: Antimicrobial activity against Staphylococcus aureus after 18 to 20 hrs by micro broth dilution method; type: functional
Bacillus cereus [2] = assay: Antimicrobial activity against Bacillus cereus after 18 to 20 hrs by micro broth dilution method; type: functional
Pseudomonas aeruginosa = assay: Antimicrobial activity against Pseudomonas aeruginosa after 18 to 20 hrs by micro broth dilution method; type: functional
Escherichia coli = assay: Antimicrobial activity against Escherichia coli after 18 to 20 hrs by micro broth dilution method; type: functional
Candida albicans = assay: Antimicrobial activity against Candida albicans after 18 to 20 hrs by micro broth dilution method; type: functional
Staphylococcus aureus [3] = assay: Bactericidal activity against Staphylococcus aureus after 24 hrs by micro broth dilution method; type: functional
Bacillus cereus [4] = assay: Bactericidal activity against Bacillus cereus after 24 hrs by micro broth dilution method; type: functional
Staphylococcus aureus [5] = assay: Antimicrobial activity against methicillin-resistant Staphylococcus aureus after 18 to 20 hrs by micro broth dilution method; type: functional
DNA gyrase subunit A = DNA gyrase subunit A (Staphylococcus aureus, UniProt P20831); assay: Inhibition of Staphylococcus aureus DNA gyrase subunit A supercoiling activity using relaxed pBR322 DNA as substrate after 60 mins by agarose gel electrophoresis
Sequence of DNA gyrase subunit A (P20831 whole entry): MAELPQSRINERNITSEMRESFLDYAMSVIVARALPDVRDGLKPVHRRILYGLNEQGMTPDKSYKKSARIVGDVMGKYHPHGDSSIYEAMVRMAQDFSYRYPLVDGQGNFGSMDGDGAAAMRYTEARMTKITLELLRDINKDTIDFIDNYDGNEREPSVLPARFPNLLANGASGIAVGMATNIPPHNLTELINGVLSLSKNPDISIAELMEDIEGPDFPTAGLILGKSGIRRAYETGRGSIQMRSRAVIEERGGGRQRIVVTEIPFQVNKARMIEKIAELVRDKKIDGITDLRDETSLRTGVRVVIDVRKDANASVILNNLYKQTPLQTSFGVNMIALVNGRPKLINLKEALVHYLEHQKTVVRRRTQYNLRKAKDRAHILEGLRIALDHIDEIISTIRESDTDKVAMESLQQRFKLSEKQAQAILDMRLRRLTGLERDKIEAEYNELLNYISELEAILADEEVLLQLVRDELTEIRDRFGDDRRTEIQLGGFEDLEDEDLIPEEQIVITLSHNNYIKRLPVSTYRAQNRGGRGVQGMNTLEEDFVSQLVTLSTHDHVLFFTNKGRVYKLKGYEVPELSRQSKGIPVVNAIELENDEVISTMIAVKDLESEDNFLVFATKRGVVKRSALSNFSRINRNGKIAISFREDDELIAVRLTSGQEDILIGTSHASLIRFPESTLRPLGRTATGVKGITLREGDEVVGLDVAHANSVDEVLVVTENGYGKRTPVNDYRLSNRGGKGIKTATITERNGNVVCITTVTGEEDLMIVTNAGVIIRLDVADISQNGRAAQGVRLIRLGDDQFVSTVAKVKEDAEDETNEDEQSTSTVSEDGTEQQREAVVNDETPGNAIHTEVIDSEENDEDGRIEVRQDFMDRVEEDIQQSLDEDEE

Staphylococcus aureus [6] = assay: Growth inhibition of Staphylococcus aureus at 1 to 4 times MIC after 24 hrs; type: functional, organism-based
Staphylococcus aureus [7] = assay: Growth inhibition of Staphylococcus aureus at 0.25 to 0.5 times MIC after 24 hrs; type: functional, organism-based
Staphylococcus aureus [8] = assay: Induction of morphological changes in Staphylococcus aureus ATCC 6538 assessed as cell wall swelling at 0.8 uM after 24 hrs by transmission electron microscopy; type: functional, organism-based
Staphylococcus aureus [9] = assay: Induction of cell wall damage in Staphylococcus aureus ATCC 6538 assessed as emergence of solute loss at 0.8 uM after 24 hrs by transmission electron microscopy; type: functional, organism-based
Staphylococcus aureus [10] = assay: Induction of cell wall damage in Staphylococcus aureus ATCC 6538 assessed as blemishes on cell wall at 0.8 uM after 24 hrs by transmission electron microscopy; type: functional, organism-based
Staphylococcus aureus [11] = assay: Induction of morphological changes in Staphylococcus aureus ATCC 6538 assessed as shrinkage of cell morphology at 0.8 uM after 24 hrs by transmission electron microscopy; type: functional, organism-based
Staphylococcus aureus [12] = assay: Induction of cell death in Staphylococcus aureus ATCC 6538 at 0.8 uM after 24 hrs by transmission electron microscopy; type: functional, organism-based

Molecule: CSc1[nH]c2cc(C(F)(F)F)ccc2c(=O)c1C(C)=O
- MIC (Staphylococcus aureus [1]): 3.12 µM (≈ 0.942 µg/mL)
- MIC (Bacillus cereus [2]): 50 µM (≈ 15.1 µg/mL)
- MIC (Pseudomonas aeruginosa): > 200 µM
- MIC (Escherichia coli): > 200 µM
- MIC (Candida albicans): > 200 µM
- MBC (Staphylococcus aureus [3]): 6.25 µM (≈ 1.88 µg/mL)
- MBC (Bacillus cereus [4]): > 200 µM
- MIC (Staphylococcus aureus [5]): > 200 µM

Molecule: CSc1[nH]c2c(Cl)cc([N+](=O)[O-])cc2c(=O)c1C(C)=O
- MIC (Staphylococcus aureus [1]): 12.5 µM (≈ 3.91 µg/mL)
- MIC (Bacillus cereus [2]): 6.25 µM (≈ 1.95 µg/mL)
- MIC (Pseudomonas aeruginosa): > 200 µM
- MIC (Escherichia coli): > 200 µM
- MIC (Candida albicans): > 200 µM
- MBC (Staphylococcus aureus [3]): > 200 µM
- MBC (Bacillus cereus [4]): > 200 µM
- MIC (Staphylococcus aureus [5]): > 200 µM
- IC50 (DNA gyrase subunit A): 80.3 µM

Molecule: CSc1[nH]c2c(Cl)cccc2c(=O)c1C(C)=O
- MIC (Staphylococcus aureus [1]): > 200 µM
- MIC (Bacillus cereus [2]): > 200 µM
- MIC (Pseudomonas aeruginosa): > 200 µM
- MIC (Escherichia coli): > 200 µM
- MIC (Candida albicans): > 200 µM

Molecule: CSc1[nH]c2ccc(C(F)(F)F)cc2c(=O)c1C(C)=O
- MIC (Staphylococcus aureus [1]): 6.25 µM (≈ 1.88 µg/mL)
- MIC (Bacillus cereus [2]): 50 µM (≈ 15.1 µg/mL)
- MIC (Pseudomonas aeruginosa): > 200 µM
- MIC (Escherichia coli): > 200 µM
- MIC (Candida albicans): > 200 µM
- MBC (Staphylococcus aureus [3]): 25 µM (≈ 7.53 µg/mL)
- MBC (Bacillus cereus [4]): > 200 µM
- MIC (Staphylococcus aureus [5]): > 200 µM

Molecule: CSc1[nH]c2c(C(F)(F)F)ccc(C(F)(F)F)c2c(=O)c1C(C)=O
- MIC (Staphylococcus aureus [1]): 0.8 µM (≈ 0.295 µg/mL)
- MIC (Bacillus cereus [2]): 1.6 µM (≈ 0.591 µg/mL)
- MIC (Pseudomonas aeruginosa): > 200 µM
- MIC (Escherichia coli): > 200 µM
- MIC (Candida albicans): 200 µM
- MBC (Staphylococcus aureus [3]): 6.25 µM (≈ 2.31 µg/mL)
- MBC (Bacillus cereus [4]): 6.25 µM (≈ 2.31 µg/mL)
- MIC (Staphylococcus aureus [5]): > 200 µM
- growth inhibition (GI) (Staphylococcus aureus [6]): Active
- growth inhibition (GI) (Staphylococcus aureus [7]): inactive
- IC50 (DNA gyrase subunit A): 1.92 µM
- Activity (Staphylococcus aureus [8]): Active
- Activity (Staphylococcus aureus [9]): Active
- Activity (Staphylococcus aureus [10]): Active
- Activity (Staphylococcus aureus [11]): Active
- Activity (Staphylococcus aureus [12]): Active

Molecule: COc1cccc2c(=O)c(C(C)=O)c(SC)[nH]c12
- MIC (Staphylococcus aureus [1]): > 200 µM
- MIC (Bacillus cereus [2]): > 200 µM
- MIC (Pseudomonas aeruginosa): > 200 µM
- MIC (Escherichia coli): > 200 µM
- MIC (Candida albicans): > 200 µM

Molecule: CSc1[nH]c2cc(Br)ccc2c(=O)c1C(C)=O
- MIC (Staphylococcus aureus [1]): 12.5 µM (≈ 3.9 µg/mL)
- MIC (Bacillus cereus [2]): 200 µM (≈ 62.4 µg/mL)
- MIC (Pseudomonas aeruginosa): > 200 µM
- MIC (Escherichia coli): > 200 µM
- MIC (Candida albicans): > 200 µM

Molecule: CSc1[nH]c2ccccc2c(=O)c1C(C)=O
- MIC (Staphylococcus aureus [1]): > 200 µM
- MIC (Bacillus cereus [2]): > 200 µM
- MIC (Pseudomonas aeruginosa): > 200 µM
- MIC (Escherichia coli): > 200 µM
- MIC (Candida albicans): > 200 µM

Molecule: C[C@@H]1[C@H](O)[C@@H](C)/C=C/C=C/C=C/C=C/C=C/C=C/C=C/[C@H](O[C@@H]2O[C@H](C)[C@@H](O)[C@H](N)[C@@H]2O)C[C@@H]2O[C@](O)(C[C@@H](O)C[C@@H](O)[C@H](O)CC[C@@H](O)C[C@@H](O)CC(=O)O[C@H]1C)C[C@H](O)[C@H]2C(=O)O [AMPHOTERICIN B]
- MIC (Candida albicans): 0.2 µg/mL

Molecule: GENTAMICIN
- MIC (Staphylococcus aureus [1]): 0.8 µM
- MIC (Bacillus cereus [2]): 1.6 µM
- MIC (Pseudomonas aeruginosa): 1 µM
- MIC (Escherichia coli): 0.125 µM
- MBC (Staphylococcus aureus [3]): 3.2 µM
- MBC (Bacillus cereus [4]): 3.2 µM
- MIC (Staphylococcus aureus [5]): > 200 µM

Molecule: CSc1[nH]c2c(Br)cccc2c(=O)c1C(C)=O
- MIC (Staphylococcus aureus [1]): 6.25 µM (≈ 1.95 µg/mL)
- MIC (Bacillus cereus [2]): > 200 µM
- MIC (Pseudomonas aeruginosa): > 200 µM
- MIC (Escherichia coli): > 200 µM
- MIC (Candida albicans): > 200 µM
- MBC (Staphylococcus aureus [3]): 25 µM (≈ 7.8 µg/mL)
- MBC (Bacillus cereus [4]): > 200 µM
- MIC (Staphylococcus aureus [5]): > 200 µM

Molecule: OC(Cn1cncn1)(Cn1cncn1)c1ccc(F)cc1F [FLUCONAZOLE]
- MIC (Candida albicans): 1 µg/mL

Molecule: CSc1[nH]c2c(Cl)ccc(C(F)(F)F)c2c(=O)c1C(C)=O
- MIC (Staphylococcus aureus [1]): 0.8 µM (≈ 0.269 µg/mL)
- MIC (Bacillus cereus [2]): 1.6 µM (≈ 0.537 µg/mL)
- MIC (Pseudomonas aeruginosa): > 200 µM
- MIC (Escherichia coli): > 200 µM
- MIC (Candida albicans): > 200 µM
- MBC (Staphylococcus aureus [3]): 12.5 µM (≈ 4.2 µg/mL)
- MBC (Bacillus cereus [4]): 12.5 µM (≈ 4.2 µg/mL)
- MIC (Staphylococcus aureus [5]): > 200 µM
- growth inhibition (GI) (Staphylococcus aureus [6]): Active
- growth inhibition (GI) (Staphylococcus aureus [7]): inactive
